Measurements published in patent US7432296B2, “Pharmaceutical formulations containing substituted 2-aryl-aminoacetic acid compounds and/or substituted 2-heteroaryl-aminoacetic acid compounds” (Gruenenthal GmbH, priority 2003, dated 2008).
Where a name gives a salt, the structure may show the parent alone.

Tests used:
[1] = target: T1, glycine binding site of the NMDA receptor channel (Rattus norvegicus, UniProt P35439); assay: Receptor binding study (glycineB binding site of the NMDA receptor channel), displacement of (3H)-MDL 105.519; settings: 10 μM of compound, rat brain membrane homogenate (cortex and hippocampus); for inhibition at 10 µM: read-out: Inhibition % (percentage fraction of bound radioactive ligand displaced from its specific binding)
T1 construct: from tissue; host or cells: rat brain cortex and hippocampus membrane homogenate (male Wistar rats)
Experimental: (a) Receptor Binding Study (GlycineB Binding Site of the NMDA Receptor Channel)
The affinity of the compounds of the general formula I used according to the invention for the glycine binding site of the NMDA receptor channel is determined using brain membrane homogenates (homogenate of cortex and hippocampus area from the brain of male rats, Wistar strain), as for example described in B. M. Baron, B. W. Siegel, B. L. Harrison, R. S. Gross, C. […] The corresponding literature description is hereby introduced as a reference and is deemed to be part of the disclosure.
To this end, the cortex and hippocampus are dissected out of freshly harvested rat brains and homogenised with ice cooling in 5 mmol/l of TRIS-acetate buffer, 0.32 mol/l of sucrose, pH 7.4 (10 ml/g fresh weight) using a Potter homogeniser (Braun/Melsungen, 10 piston strokes at 500 rpm) and then centrifuged for 10 minutes at 1,000 g and 4° C. The first supernatant is collected and the sediment again homogenised with ice cooling with 5 mmol/l of tris-acetate buffer, 0.32 mol/l of sucrose, pH 7.4 (5 ml/g of original fresh weight) with the Potter homogeniser (10 piston strokes at 500 rpm) and centrifuged for 10 minutes at 1,000 g and 4° C. The resultant supernatant is combined with the supernatant from the first centrifugation and centrifuged at 17.000 g for 20 minutes at 4° C. The supernatant after this centrifugation is discarded and the membrane sediment resuspended with 5 mmol/l of TRIS-acetate buffer, pH 8.0 (20 ml/g of original fresh weight) and homogenised with 10 piston strokes at 500 rpm.
The membrane homogenate is then incubated for 1 hour at 4° C. and centrifuged for 30 minutes at 50,000 g and 4° C. The supernatant is discarded and the centrifuge tubes containing the membrane sediment are sealed with Parafilm and frozen for 24 hours at −20° C. On the following day, the membrane sediment is thawed and resuspended with ice-cold 5 mmol/l TRIS-acetate buffer, 0,1% saponin (wt./vol.), pH 7.0 (10 ml/g of original fresh weight) and homogenised with 10 piston strokes at 500 rpm and then centrifuged for 20 minutes at 50.000 g and 4° C. The resultant supernatant is discarded and the sediment resuspended in a small volume with 5 mmol/l of TRIS-acetate buffer, pH 7.0 (approx. 2 ml/g of original fresh weight) and again homogenised with 10 piston strokes at 500 rpm. After determination of the protein content, the membrane homogenate is adjusted with 5 mmol/l TRIS-acetate buffer, pH 7.0, to a protein concentration of 10 mg of protein/ml and frozen in aliquots until used for testing.
The receptor binding test is performed by thawing aliquots, diluting them 1:10 with 5 mmol/l TRIS-acetate buffer, pH 7.0, homogenising them with ice-cooling with 10 piston strokes at 500 rpm with the Potter homogeniser (10 piston strokes at 500 rpm) and centrifuging them for 60 minutes at 55,000 g at 4° C. The supernatant is decanted and the membrane sediment adjusted with ice-cold 50 mmol/l TRIS-acetate buffer, pH 7.0, to a protein concentration of 1 mg/ml and again homogenised with 10 piston strokes at 500 rpm and kept in suspension in an ice bath with stirring on a magnetic stirrer. This membrane homogenate is used in the receptor binding test in a quantity of 100 µl per 1 ml batch (0.1 mg of protein/ml in the final batch). […] The level of nonspecific binding is determined in the presence of 1 mmol/l of glycine.
In further batches, the compounds used according to the invention are added in concentration series and the displacement of the radioactive ligand from its specific binding at the glycine-binding site of the NMDA receptor channel is determined. Each of the triplicate batches is incubated for 120 minutes at 4° C. and then harvested by filtration through glass fibre filter mats (GF/B) in order to determine the radioactivity bound to the membrane homogenate.

[2] = test system: formaldehyde-induced nociception; assay: Formaldehyde test (mouse), second (late) phase; format: in vivo; settings: male NMRI mice, percentage change of the control
Experimental: (b) Formaldehyde Test (Mouse)
The investigations for determining the antinociceptive action of the substituted 2-arylaminoacetic acid compounds and/or substituted 2-heteroarylaminoacetic acid compounds of the above general formula I used according to the invention are carried out by the formaldehyde test on male albino mice (NMRI, 25-35 g, Iffa, Credo, Belgium).
In the formaldehyde test, a distinction is drawn between the first (early) phase (0-15 min after formaldehyde injection) and the second (late) phase (15-60 min after formaldehyde injection) (D. Dubuisson et al., Pain, vol. 4, pp. 161-174 (1977)). The early phase, being a direct response to the formaldehyde injection, is considered to be a model of acute pain, while the late phase is considered to be a model of persistent (chronic) pain (T. J. Coderre et al., Pain, vol. 52, pp. 259-285 (1993)). The corresponding literature descriptions are hereby introduced as a reference and are deemed to be part of the disclosure. […]
For the investigation period in the second (late) phase of the formaldehyde test, nociceptive behaviour is continuously recorded by observing the animals. […] On the basis of the quantification of the pain behaviour, action in the formaldehyde test is determined as a percentage change of the control. […]

SMILES | inhibition at 10 µM [1] | further results
CSc1ccccc1C(Nc1cc(Cl)cc(Cl)c1)C(=O)[O-].[Na+] (centres unmarked) [Example 12, (3,5-Dichlorophenylamino)-(2-methylsulfanylphenyl)acetic acid, sodium salt] | 39% | Inhibition (at dose) ([2]; at 31.6 mg/kg): 66% (at 31.6 mg/kg)
CSc1ccc(C(Nc2cc(Cl)cc(Cl)c2)C(=O)O)cc1 (centres unmarked) [Example 6, (3,5-Dichlorophenylamino)-(4-methylsulfanylphenyl)acetic acid] | – | Inhibition % (percentage fraction of bound radioactive ligand displaced from its specific binding) [1]: 87%; Inhibition (at dose) ([2]; at 46.4 mg/kg): 31% (at 46.4 mg/kg)
CSc1ccc(C(Nc2cc(Cl)cc(Cl)c2)C(=O)O)cc1 (centres unmarked) [Example 13, (3,5-Dichlorophenylamino)-(4-methylsulfanylphenyl)acetic acid, sodium salt] | 83% | –
O=C(O)C(Nc1cc(Cl)cc(Cl)c1)c1cccc2c1Oc1ccccc1S2 (centres unmarked) [Example 10, (3,5-Dichlorophenylamino)-(phenoxathiin-4-yl)acetic acid, sodium salt] | 38% | –
O=C(O)C(Nc1cc(Cl)cc(Cl)c1)c1cccc2c1sc1ccccc12 (centres unmarked) [Example 2, (Dibenzothiophen-4-yl)-(3,5-dichlorophenylamino)acetic acid] | 33% | –
O=C(O)C(Nc1cc(Cl)cc(Cl)c1)c1cccc2c1Sc1ccccc1S2 (centres unmarked) [Example 11, (3,5-Dichlorophenylamino)-(thianthren-1-yl)acetic acid, sodium salt] | 25% | –
